From patent EP0109340A2, “Acid salts of 2-piperazinopyrimidine, process for their preparation and pharmaceutical compositions containing them” (priority 1982, dated 1984)

How the values were obtained:
[1] = system: comportement de rotation chez la souris après lésion unilatérale du striatum; assay: rotation behaviour after unilateral 6-hydroxydopamine lesion of the striatum (dopaminergic mechanism); format: in vivo, souris femelles Charles River CD1; details: oral, dose corresponding to 0,15 mg/kg free base; for activité dans le temps (rotations): course over 1, 3 and 6 h; for activité dans le temps (rotations) / somme algébrique des rotations ipsilatérales et contralatérales à la lésion: result in words; for somme algébrique des rotations ipsilatérales et contralatérales à la lésion: versus controls
Text: Le mécanisme dopaminergique d'un composé représentatif de l'invention, la 2-(1-pipérazinyl)pyrimidine mcno-L (+) - tartrate, a été étudié en comparaison avec la base libre correspondante et son chlorhydrate par l'analyse du comportement de rotation chez la souris après lésion unilatérale du striatum (P. Protais et al. J. Pharmacol. 1976, 7, 251).
Des souris femelles Charles River CD1 pesant de 20 à 24 g ont préalablement fait l'objet d'une lésion unilatérale du striatum par injection stéréotaxique de 6-hydroxydopamine à raison de 8 mcg par animal. Une semaine après cette opération, la 2-(1-pipérazinyl)pyrimidine mono-L(+)-tartrate, la 2-(l-pipérazinyl)pyrimidine chlorhydrate et la base libre ont été administrées par voie orale à des groupes de 6 souris à une dose correspondant à 0,15 mg/kg de base libre. Le nombre de rotations à été évalué, pendant 2 minutes, 1, 3 et 6 heures après l'administration des trois produits. Les rotations ipsilatérales à la lésion ont été comptées positivement, celles contralatérales ont été comptées négativement. La somme algébrique des rotations pour chaque groupe d'animaux traités a été comparée à celle du groupe d'animaux témoins n'ayant reçu que le véhicule (sérum physiologique).
Le Tableau IV ci-dessous montre la variation pour cent, par rapport aux animaux témoins, des rotations.

[2] = system: toxicité de groupe due à l'amphétamine; assay: antagonism of amphetamine group toxicity (predictive of antipsychotic action); format: in vivo, souris Charles Fiver CD1; details: Mus musculus, ip; median effective dose against mortality due to amphetamine 30 mg/kg i.p.; compound i.p. 30 min before; mortality over 24 h; confidence limits 10,1 - 26,7; read-out: DE50 (limites de confiance)
Text: L'activité antipsychotique d'un composé représentatif, le monomaléate de 2-(1-pipérazinyl)pyrimidine, a été déterminée dans le test de l'antagonisme de la toxicité de groupe due à l'amphétamine (J.H. Burn et al., Arch. Int. Pharmacodyn. Ther. 1958, 113, 290).
Le monomaléate de 2-(1-pipérazinyl)pyrimidine a Été administré à des doses croissantes par voie intrapéritonéale à des lots de 10 souris Charles Fiver CD1 pesant 20-22 g et groupées dans des cages de 22 cm de long, 12 cm de large et 12 cm de haute. Trente minutes après l'administration, on a injecté par voie intrapéritonéale de l'amphétamine à la dose de 30 mg/kg. La mortalité des animaux a été évaluée durant les 24 h qui ont suivi l'injection d'amphétamine et comparée, dans chaque groupe, à celle du groupe d'animaux témoins n'ayant reçu que le véhicule (sérum ghysiologigue).
Le tableau ci-dessous montre la dose efficace médiane (DE5G) d'antagonisme de la mortalité due à l'amphétamine.

[3] = system: catalepsie provoquée par la prochlorpérazine; assay: antagonism of the onset of prochlorperazine-induced catalepsy (cork test, predictive of antidepressant activity); format: in vivo, rats mâles Wistar; details: 1 h before prochlorperazine 10 mg/kg s.c., read 5 h later
Text: L'activité antidépressive des composés de l'invention a été évaluée dans le test de l'antagonisme vis-à-vis de l'installation de la catalepsie provoquée par la prochlorpérazine (K. Eizière et al., Arzneimittel Forschung, 1982, 32 (II), 824).
Un composé représentatif de l'invention, à savoir le monomaléate de 2-(1-pipérazinyl)pyrimidine, a été administré par voie intrapéritonéale à des groupes de 10 rats mâles Wistar pesant 220-240 g; des animaux de contrôle ont été en même temps traités par du sérum physiologique. Une heure après, les animaux ont reçu, par voie sous-cutanée, de la prochlcrpérazine à une dose de 10 mg/kg. Cinq heures après cette administration, le nombre d'animaux cataleptiques a été estimé par le test du bouchon. Ce test consiste à positionner les animaux de telle sorte qu'ils puissent maintenir pendant au moins 20 seconds leurs pattes en appui sur une colonne formée de trois bouchons de liège superposés (hauteur totale 11 cm). Les performances réalisées pour chaque groupe d'animaux ont été comparées à celles du groupe d'animaux témoins n'ayant reçu que le véhicule et la prcchlorpérazine.
Le tableau ci-dessous montre le pourcentage d'antagonisme de l'installation de la catalepsie provoquée par la prochlorpérazine.

[4] = free base, tested within a series of compounds; literature; cited from earlier work

Structure (SMILES)	variation négative (variation pour cent des rotations par rapport aux animaux témoins) ([1]; 6th hour) [%]	activité dans le temps (rotations) [1]	ED50 [2] [mg/kg]	% d'antagonisme ([3]; dose 0,1 mg/kg i.p.) [%]	% d'antagonisme ([3]; dose 1 mg/kg i.p.) [%]	somme algébrique des rotations ipsilatérales et contralatérales à la lésion [1]	activité analgésique ou antifilariale [4]
c1cnc(N2CCNCC2)nc1 [2-(1-pipérazinyl)pyrimidine monc-L(+)-tartrate] [mono-L(+)-tartratede 2-(1-pipérazinyl)pyrimidine]	> 100	son activité augmente significativement dans le temps	–	–	–	–	–
c1cnc(N2CCNCC2)nc1 [2-(1-pipérazinyl)pyrimidine monomaléate, monomaléatede 2-(l-pipérazinyl)pyrimidine]	–	–	16.5	20	80	–	–
c1cnc(N2CCNCC2)nc1 [base libre, 2-(1-pipérazinyl)pyrimidine]	–	tendence à la diminution de l'activité dans le temps	–	–	–	réduit d'une façon significative	aucun n'a montré d'activité analgésique ou antifilariale
c1cnc(N2CCNCC2)nc1 [chlorhydrate, 2-(l-pipérazinyl)pyrimidine chlorhydrate]	–	inactif aussi dans le temps	–	–	–	n'a pas d'effet significatif	–
